Measurements from US20250325533A1, “TRYPTAMINE COMPOSITIONS FOR ENHANCING NEURITE OUTGROWTH” (TURTLE BEAR HOLDINGS, LLC, priority 2016, published 2025).
Entries after “also recorded” stand apart in the source; their conditions may differ.

Experiments:
[1] = tested on: inflammation in the lungs; settings: in vivo; cited from earlier work
[2] = tested on: hallucinogenic effects in humans; settings: human, cited from earlier work
[3] = tested on: PC12 cells (conditioned media from 1321N1 human astrocytoma cells); assay: Neurite outgrowth of PC12 cells treated with conditioned media from 1321N1 cells; assay type: cell-based, rat; settings: conditioned media from treated 1321N1 cells; n=3
Excerpt: 1321N1 human brain astrocytoma cells are known to excrete neurologically beneficial compounds when stimulated with neurotrophic compounds and fungal extracts including lion's mane (Mori et al., Biological and Pharmaceutical Bulletin, 9: 1727-1732 (2008)). While some fungi have well established mechanisms by which they benefit neurological health, little is known about the role of psilocybin analogs specifically. Generally following the protocol of Mori et al., 2008, 1321N1 human astrocytoma cells were treated with psilocybin analogs, and conditioned media was collected and applied to differentiated rat pheochromocytoma PC12 cells to determine the resulting impact on neurite outgrowth.

[4] = tested on: Rat Induced Pluripotent Stem Cell (iPSC) neurons / cortical neurons from rat embryo; assay: Neurite outgrowth and length in cultured neurons, beta III tubulin immunostaining, High-Content Screening (Neurofit); assay type: cell-based; settings: day 10
Method: Experiments were conducted to evaluate the neurotrophic effects of several purified tryptamines, H. erinaceum extracts, and the tryptamines combined with selected extracts of H. erinaceum. The tryptamines, baeocystin, norbaeocystin, and norpsilocin, were evaluated at final concentrations of 0.3 μg/mL, 1 μg/mL, 3 μg/mL, and 10 μg/mL. The experiments analyzed the H. erinaceum growth medium (rice or rice and oat hull fiber), the days of cultivation, the extract solvent (water, ethanol, or ethyl acetate), and the final concentration of the extract (31.3 μg/mL, 62.5 μg/mL, 125 μg/mL or 250 μg/mL). Finally, combinations of the three tryptamines and representative H. erinaceum extracts were combined and evaluated.
Experiments were conducted by Neurofit Contract Research Organization in Illkirch-Graffenstaden, France.
The following protocol was performed for each independent culture. Six culture experiments were performed for each condition.
Results are expressed as mean (±Standard Deviation).

[5] = tested on: nerve growth factor (NGF) protein; assay: ELISA of NGF protein in 1321N1 cells; assay type: cell-based; settings: human 1321N1 cells; vs vehicle control; n=3; p<0.05
Excerpt: Accordingly, preliminary research has started to reveal the mechanisms by which psilocybin analogs may confer neurotrophic benefits that facilitate neurite outgrowth.
(§1) See Ly et al., “Psychedelics Promote Structural and Functional Neural Plasticity,” Cell Rep.

[6] = tested on: anti-inflammatory cytokine IL-10; assay: ELISA of IL-10 in 1321N1 cells; assay type: cell-based; settings: human 1321N1 brain cells
Excerpt: as §1

## COc1cc(C[C@@H](C)N)c(OC)cc1I [(R)-2,5-dimethoxy-4-iodoamphetamine]
[1]
  inflammation in the lungs: prevent and reverse inflammation

## CNCCc1c[nH]c2cccc(OP(=O)(O)O)c12 [baeocystin, 4-phosphoryloxy-N-methyltryptamine]
[2]; 4 mg consumed, anecdotal (Gartz 1991)
  hallucinogenic effect: gentle hallucinogenic experience
[2]; oral consumption of 10 mg and 20 mg
  hallucinogenic effects: did not produce any hallucinogenic effects
[3]
  neurite outgrowth induced by conditioned media: induce neurite outgrowth
[4]; tryptamine 0.3 μg/mL
  Neurite length per neuron, % of control, Avg.: 119.24%
  Neurites per neuron, % of control, Avg.: 94.46%
[4]; tryptamine 1 μg/mL
  Neurite length per neuron, % of control, Avg.: 112.34%
  Neurites per neuron, % of control, Avg.: 93.66%
[4]; tryptamine 3 μg/mL
  Neurite length per neuron, % of control, Avg.: 118.42%
  Neurites per neuron, % of control, Avg.: 97.18%
[4]; tryptamine 10 μg/mL
  Neurite length per neuron, % of control, Avg.: 109.61%
  Neurites per neuron, % of control, Avg.: 96.87%

## NCCc1c[nH]c2cccc(OP(=O)(O)O)c12 [norbaeocystin, 4-phosphoryloxy-tryptamine]
[5]
  expression of NGF protein: increased expression of NGF protein; also recorded: induces the expression; also recorded: induction of NGF protein
[3]
  neurite outgrowth induced by conditioned media: induce neurite outgrowth

## CNCCc1c[nH]c2cccc(O)c12 [norpsilocin, 4-hydroxy-N-methyl-tryptamine]
[6]
  expression of IL-10: induces the expression
[3]
  neurite outgrowth induced by conditioned media: induce neurite outgrowth
[4]; at the concentrations tested
  neurite outgrowth compared with vehicle control and other treatments (in words): did not perform better than vehicle control
[4]; tryptamine 0.3 μg/mL
  Neurite length per neuron, % of control, Avg.: 107.70%
  Neurites per neuron, % of control, Avg.: 83.77%
[4]; tryptamine 1 μg/mL
  Neurite length per neuron, % of control, Avg.: 101.13%
  Neurites per neuron, % of control, Avg.: 87.18%
[4]; tryptamine 3 μg/mL
  Neurite length per neuron, % of control, Avg.: 73.80%
  Neurites per neuron, % of control, Avg.: 79.36%
[4]; tryptamine 10 μg/mL
  Neurite length per neuron, % of control, Avg.: 7.65%
  Neurites per neuron, % of control, Avg.: 27.71%
